This passage reports GI50 results from patent US20070167499A1, “Biaryl linked hydroxamates: preparation and pharmaceutical applications” (A*BIO Pte Ltd., priority 2003, published 2007).

The subject of one experiment is Colo205. As to the kind of experiment: Cell-based proliferation assay for determination of GI50 values, colon cancer cell line. The note with it: Homo sapiens, COLO 205; 96 h treatment, cyquant cell proliferation assay; read-out: Cellular activities GI50, Colo205. On the procedure:
(§1) Cell-based Proliferation assay for determination of GI50 values
(§2) Three different cancer cell lines were obtained from ATCC: Human colon cancer cell line (Colo205), human breast cancer cell lines (MDA-MB435), and human lung cancer cell line (NCl-H522). Colo205 cells and NCl-H522 were cultivated in RPMI 1640 containing 2 mM
(§3) L-Glutamine, 5% FBS, 1.0 mM Na Pyruvate. MDA-MB435 cells were cultivated in DMEM containing 2 mM L-Glutamine, 5% FBS. Colo205 cells were seeded in 96-wells plate at 2000 and 5000 cells per well respectively. MDA-MB435 and NCl-H522 cells were seeded in 96-wells plate at 6000 cells per well. The plates were incubated at 37° C., 5% CO2, for 24 h. Cells were treated with compounds at various concentrations for 96 h. Cell growth was then monitored using cyquant cell proliferation assay (Invitrogen Pte Ltd). Dose response curves were plotted to determine GI50 values for the compounds using XL-fit (ID Business Solution, Emeryville, Calif.).

The next experiment deals with NCI H552. The experiment is described as follows: Cell-based proliferation assay for determination of GI50 values, lung cancer cell line. Particulars: Homo sapiens; 96 h treatment, cyquant cell proliferation assay; read-out: Cellular activities GI50, NCI H552. Here is the method:
as §1, §2, §3

Usually GI50 stands for the concentration that inhibits growth by half.

Regarding `CC(C)(C)OC(=O)N1CCN(c2ccc(C(=O)Nc3nc(-c4ccc(CC(=O)NO)s4)cs3)cc2)CC1` [Example 9], the values for the GI50 in the experiment on Colo205 and with NCI H552 were 5.47 µM and 3.01 µM, respectively.
